Data from ChEMBL document CHEMBL3414454, “Designing and exploring active N'-[(5-nitrofuran-2-yl) methylene] substituted hydrazides against three Trypanosoma cruzi strains more prevalent in Chagas disease patients” (Eur J Med Chem, 2015).

Experiments:
Trypanosoma cruzi [1] = experiment: Anti-trypanosomal activity against Trypanosoma cruzi Y epimastigote forms assessed as inhibition of parasite growth after 72 hrs by microplate reader based assay; assay type: functional, organism-based; settings: for IC50: Trypanosoma cruzi, Y, 72 h
Trypanosoma cruzi [2] = experiment: Anti-trypanosomal activity against Trypanosoma cruzi Silvio X10 cl1 epimastigote forms assessed as inhibition of parasite growth after 72 hrs by microplate reader based assay; assay type: functional, organism-based; settings: for IC50: Trypanosoma cruzi, Silvio X10 cl1, 72 h
Trypanosoma cruzi [3] = experiment: Anti-trypanosomal activity against Trypanosoma cruzi Bug 2149 cl10 epimastigote forms assessed as inhibition of parasite growth after 72 hrs by microplate reader based assay; assay type: functional, organism-based; settings: for IC50: Trypanosoma cruzi, Bug 2149 cl10, CL1-0, 72 h
[4] = Cytotoxicity against human LL24 cells assessed as inhibition of cell growth after 24 hrs by MTT assay; assay type: cell-based; settings: LL24, 24 h
[5] = Selectivity index, ratio of IC50 for human LL24 cells to IC50 for Trypanosoma cruzi Y epimastigote forms; assay type: toxicity, cell-based; settings: read-out: Ratio IC50
[6] = Selectivity index, ratio of IC50 for human LL24 cells to IC50 for Trypanosoma cruzi Silvio X10 cl1 epimastigote forms; assay type: toxicity, cell-based; settings: read-out: Ratio IC50
[7] = Selectivity index, ratio of IC50 for human LL24 cells to IC50 for Trypanosoma cruzi Bug 2149 cl10; assay type: toxicity, cell-based; settings: read-out: Ratio IC50

| SMILES | log1/IC50 (Trypanosoma cruzi [1]) | IC50 (Trypanosoma cruzi [1]) [µM] | log1/IC50 (Trypanosoma cruzi [2]) | IC50 (Trypanosoma cruzi [2]) [µM] | log1/IC50 (Trypanosoma cruzi [3]) | IC50 (Trypanosoma cruzi [3]) [µM] | IC50 [4] [µM] | selectivity ratio [5] | selectivity ratio [6] | selectivity ratio [7] |
| --- | --- | --- | --- | --- | --- | --- | --- | --- | --- | --- |
| O=C(N/N=C/c1ccc([N+](=O)[O-])o1)C1CCCCC1 | 4.84 | 14.4 | 4.86 | 13.7 | 4.89 | 12.8 | > 200 | > 14 | > 15 | > 16 |
| CCCCCC(=O)N/N=C/c1ccc([N+](=O)[O-])o1 | 4.99 | 10.2 | 5.01 | 9.72 | 4.91 | 12.2 | 99 | 10 | 10 | 8 |
| CCCCCCCC(=O)N/N=C/c1ccc([N+](=O)[O-])o1 | 4.87 | 13.5 | 4.83 | 14.7 | 4.84 | 14.4 | 91 | 7 | 6 | 6 |
| N#Cc1ccc(C(=O)N/N=C/c2ccc([N+](=O)[O-])o2)cc1 | 4.64 | 23.1 | 4.43 | 37.4 | 4.6 | 25.3 | > 200 | > 9 | > 5 | > 8 |
| CCCCc1ccc(C(=O)N/N=C/c2ccc([N+](=O)[O-])o2)cc1 | 5.51 | 3.1 | 5.32 | 4.75 | 5.36 | 4.41 | > 200 | > 64 | > 42 | > 45 |
| O=C(N/N=C/c1ccc([N+](=O)[O-])o1)C1CCCC1 | 4.93 | 11.9 | 4.7 | 19.9 | 4.84 | 14.6 | 58 | 5 | 3 | 4 |
| CC(C)(C)c1ccc(C(=O)N/N=C/c2ccc([N+](=O)[O-])o2)cc1 | 5.03 | 9.43 | 4.86 | 13.7 | 4.86 | 13.7 | > 200 | > 21 | > 15 | > 15 |
| CCCc1ccc(C(=O)N/N=C/c2ccc([N+](=O)[O-])o2)cc1 | 5.04 | 9.09 | 4.99 | 10.3 | 5.01 | 9.8 | 89 | 10 | 9 | 9 |
| CCCOc1ccc(C(=O)N/N=C/c2ccc([N+](=O)[O-])o2)cc1 | 5.13 | 7.33 | 4.89 | 12.8 | 5.01 | 9.72 | > 200 | > 27 | > 16 | > 21 |
| CCCCOc1ccc(C(=O)N/N=C/c2ccc([N+](=O)[O-])o2)cc1 | 5.46 | 3.47 | 5.29 | 5.07 | 5.37 | 4.25 | > 200 | > 58 | > 39 | > 47 |
| CC(C)(C)OC(=O)N/N=C/c1ccc([N+](=O)[O-])o1 | 5.03 | 9.41 | 4.86 | 13.8 | 4.91 | 12.2 | > 200 | > 21 | > 14 | > 16 |
| O=C(Cc1ccccc1)N/N=C/c1ccc([N+](=O)[O-])o1 | 4.96 | 11 | 4.69 | 20.2 | 4.91 | 12.3 | 97 | 8.83 | 4.79 | 7.91 |
| CC(C)c1ccc(C(=O)N/N=C/c2ccc([N+](=O)[O-])o2)cc1 | 5.41 | 3.91 | 5.22 | 6.09 | 5.04 | 9.04 | > 200 | > 51 | > 33 | > 22 |
| CCCCNc1ccc(C(=O)N/N=C/c2ccc([N+](=O)[O-])o2)cc1 | 5.51 | 3.39 | 5.36 | 4.34 | 5.37 | 4.22 | 47 | 14 | 11 | 11 |
| O=C(N/N=C/c1ccc([N+](=O)[O-])o1)c1ccc(-c2ccccc2)cc1 | 5.93 | 1.17 | 5.5 | 3.17 | 5.74 | 1.81 | > 200 | > 176 | > 63 | > 110 |
| O=C(N/N=C/c1ccc([N+](=O)[O-])o1)c1ccccc1Oc1ccccc1 | 5.11 | 7.79 | 4.91 | 12.3 | 4.91 | 12.2 | > 200 | > 26 | > 16 | > 16 |
| Cc1cccc(C(=O)N/N=C/c2ccc([N+](=O)[O-])o2)c1 | 5 | 9.89 | 4.56 | 27.7 | 4.61 | 24.8 | > 200 | > 20 | > 7 | > 8 |
| O=C(N/N=C/c1ccc([N+](=O)[O-])o1)c1ccccc1 | 4.9 | 12.6 | 4.51 | 31.1 | 4.85 | 14.2 | 178 | 14 | 5.72 | 12.5 |
| O=C(N/N=C/c1ccc([N+](=O)[O-])o1)c1ccc(Cl)cc1 | 5.04 | 9.15 | 4.7 | 20 | 4.84 | 14.5 | 187 | 20.4 | 9.36 | 12.9 |
| CN(C)c1ccc(C(=O)N/N=C/c2ccc([N+](=O)[O-])o2)cc1 | 4 | 100 | 4 | 100 | 4.33 | 47.3 | > 200 | > 2 | > 2 | > 4 |
| O=C(Cn1ccnc1[N+](=O)[O-])NCc1ccccc1 [BENZNIDAZOLE] |  | 40.4 |  |  |  |  | > 200 |  |  |  |
| O=C(N/N=C/c1ccc([N+](=O)[O-])o1)c1ccc(O)cc1 [NIFUROXAZIDE] | 3.52 | 300 |  |  | 3.52 | 300 | > 200 | > 1 |  | > 1 |
| CC1CS(=O)(=O)CCN1/N=C/c1ccc([N+](=O)[O-])o1 (stereo not drawn) [NIFURTIMOX] | 4.89 | 12.8 | 5.22 |  | 5.14 | 7.32 | > 200 | > 16 | > 33 | > 27 |
| CC(=O)N/N=C/c1ccc([N+](=O)[O-])o1 [NIHYDRAZONE] | 4.86 | 13.7 | 4.57 | 27.1 | 4.8 | 15.8 | > 200 | > 15 | > 7 | > 13 |
